Among the test systems are 786-0; ACHN; CAKI-1; HCT-116; HOP-62; HOP-92; IGROV-1; K562; NCI-H23; NCI-H460; RPMI-8226; SF-295; SW-620; UACC-257; UACC-62; UO-31; SK-OV-3.
What all share (experiment): NCI tumour cell line growth inhibition, 48 h

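These data come from cells grown in 96-well plates and exposed to compound for 48 hours at five concentrations. GI50: concentration for 50% inhibition of growth.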 Activity calls are given as the source filed them. Cut-off read from the data, not from the text of the source: active = GI50 up to about 1.1 µM and inactive = higher.

For `CCCCC(C(=O)C(=O)Nc1ccc(C)cc1C)C(=O)C(C)C` (centres undefined), the GI50 in the assay with 786-0, in the assay with ACHN, in the assay on CAKI-1, in the assay with HCT-116, in the assay with HOP-62 and in the assay with HOP-92 was > 100 µM (inactive) throughout. Further, the GI50 in the assay with IGROV-1, in the assay with K562, in the assay on NCI-H23, with NCI-H460, in the assay on RPMI-8226 and in the assay on SF-295 was > 100 µM (inactive) each time. Further, the GI50 in the assay with SW-620, with UACC-257, in the assay with UACC-62 and in the assay with UO-31 was > 100 µM (inactive) each time.

Regarding `C1=CC2SSSC2C1` (centres undefined), the GI50 in the assay on 786-0, in the assay with ACHN, in the assay on HCT-116, in the assay with HOP-62, in the assay on HOP-92 and in the assay on IGROV-1 was > 100 µM (inactive) throughout. For the same molecule, the GI50 in the assay with K562, in the assay with NCI-H23, in the assay with NCI-H460, in the assay with RPMI-8226, with SF-295 and with SK-OV-3 was > 100 µM (inactive) throughout. Also, the GI50 in the assay with SW-620, with UACC-257, with UACC-62 and in the assay with UO-31 was > 100 µM (inactive) each time.

As for `N=C(N)/N=C(/C=C/c1ccccc1)CC1OC(=O)c2ccccc21` (centres undefined), the GI50 in the assay with 786-0, in the assay with ACHN, in the assay on CAKI-1, in the assay on HCT-116, in the assay with HOP-62 and in the assay with IGROV-1 was > 100 µM (inactive) each time. Besides, the GI50 in the assay with K562 is > 100 µM (inactive); in the assay with NCI-H460, > 100 µM (inactive); with RPMI-8226 it was > 100 µM (inactive); with SF-295, > 10 µM (inactive); in the assay with SW-620, > 100 µM (inactive); with UACC-257, > 100 µM (inactive). Further, the GI50 in the assay on UACC-62 is 42 µM (inactive); in the assay with UO-31, > 100 µM (inactive).

Turning to `COc1ccc(NC(=O)C2=CC(=O)c3ccc(O)cc3C2=O)c(OC)c1`, the GI50 in the assay on 786-0, in the assay on ACHN, with CAKI-1, with HCT-116, in the assay on HOP-62 and in the assay on HOP-92 was > 100 µM (inactive) in each case. In addition, the GI50 in the assay with IGROV-1, in the assay with K562, in the assay on NCI-H23, in the assay with NCI-H460, in the assay on RPMI-8226 and in the assay with SF-295 was > 100 µM (inactive) each time. Further, the GI50 in the assay on SW-620, in the assay with UACC-257 and with UACC-62 was > 100 µM (inactive) in each case.

As for `NN/C(Cc1ccccc1)=N/NC(N)=S`, the GI50 is > 100 µM (inactive) in the assay on 786-0; 62.5 µM (inactive) in the assay with ACHN; > 100 µM (inactive) in the assay on HOP-62; > 100 µM (inactive) in the assay with HOP-92; > 100 µM (inactive) with IGROV-1; > 100 µM (inactive) in the assay on K562. Besides, the GI50 is > 10 µM (inactive) with NCI-H23; > 100 µM (inactive) in the assay with NCI-H460; > 100 µM (inactive) in the assay with RPMI-8226; > 100 µM (inactive) with SF-295; > 100 µM (inactive) in the assay with SK-OV-3; > 100 µM (inactive) in the assay with SW-620. In addition, the GI50 in the assay with UACC-257, in the assay on UACC-62 and in the assay on UO-31 was > 100 µM (inactive) in each case.

Turning to `Cc1cc2c(C)n(Cc3ccc(Cl)cc3Cl)nc2c(C(=O)O)c1C`, the GI50 in the assay on 786-0 is > 100 µM (inactive); with ACHN it was > 100 µM (inactive); in the assay with HCT-116, > 100 µM (inactive); with HOP-62 it was > 100 µM (inactive); in the assay with HOP-92, 42.9 µM (inactive); with IGROV-1 it was > 100 µM (inactive). Further, the GI50 in the assay on NCI-H23 was > 100 µM (inactive); in the assay on NCI-H460, 96.4 µM (inactive); in the assay on RPMI-8226, > 100 µM (inactive); in the assay with SF-295, > 100 µM (inactive); in the assay with SK-OV-3, > 100 µM (inactive); in the assay with SW-620, > 100 µM (inactive). Also, the results for the GI50 with UACC-257, with UACC-62 and in the assay on UO-31 were > 100 µM (inactive), 96.8 µM (inactive) and > 100 µM (inactive), respectively.

`Cc1nn(-c2ccccc2)c(S)c1C(=O)c1ccccc1`: the GI50 in the assay with ACHN is 39.9 µM (inactive); in the assay on CAKI-1, > 100 µM (inactive); in the assay on IGROV-1, 51.2 µM (inactive); with K562 it was 39.8 µM (inactive); in the assay on NCI-H23 it was 43.5 µM (inactive); with RPMI-8226 it was 19.1 µM (inactive). The GI50 in the assay with SF-295 was 35.2 µM (inactive); with SK-OV-3, > 100 µM (inactive); in the assay on SW-620 it was 32.6 µM (inactive); in the assay on UACC-257, 76.2 µM (inactive); with UACC-62, 47.1 µM (inactive); in the assay with UO-31, 36 µM (inactive).

Turning to `COc1ccc(CCN(C)C2CCC(C#N)(c3ccc(OC)c(OC)c3)CC2)cc1OC` (centres undefined), the GI50 in the assay on 786-0 was > 100 µM (inactive); with ACHN, > 100 µM (inactive); in the assay on HCT-116, 85.3 µM (inactive); in the assay with HOP-62, > 100 µM (inactive); in the assay on HOP-92, 38.9 µM (inactive); in the assay with IGROV-1, > 100 µM (inactive). Moreover, the GI50 in the assay on K562 is 39.1 µM (inactive); with NCI-H23, > 100 µM (inactive); in the assay on NCI-H460, > 100 µM (inactive); in the assay with RPMI-8226, 54 µM (inactive); in the assay with SF-295, > 100 µM (inactive); with SK-OV-3 it was > 100 µM (inactive). Besides, the GI50 with SW-620, in the assay with UACC-257, in the assay with UACC-62 and in the assay with UO-31 was > 100 µM (inactive) each time.

With `S=C(N/N=C/c1ccccc1)NC1CC(c2ccccc2)Oc2ccccc21` (centres undefined), the GI50 with 786-0 is 67 µM (inactive); in the assay with ACHN it was > 10 µM (inactive); with CAKI-1, 28.4 µM (inactive); with HCT-116, 72.1 µM (inactive); with HOP-92 it was 2.17 µM (inactive); with IGROV-1 it was > 100 µM (inactive). The GI50 in the assay with K562 is 15.2 µM (inactive); in the assay with NCI-H23, 25.8 µM (inactive); with NCI-H460, 23.1 µM (inactive); with SF-295 it was 16.1 µM (inactive); with SK-OV-3, 11.7 µM (inactive); in the assay with SW-620, > 100 µM (inactive). The results for the GI50 in the assay with UACC-62 and in the assay on UO-31 were 48.8 µM (inactive) and > 100 µM (inactive), respectively.

Turning to `CCOC(=O)/C(O)=C(/C(=O)OC)c1ccc(Cl)cc1`, the GI50 in the assay with 786-0, with ACHN, in the assay on CAKI-1, with HOP-62, with IGROV-1 and with K562 was > 100 µM (inactive) in each case. The GI50 in the assay with NCI-H23, in the assay on NCI-H460, in the assay on RPMI-8226, in the assay on SF-295, in the assay with SK-OV-3 and in the assay with SW-620 was > 100 µM (inactive) in each case. For the same molecule, the GI50 in the assay with UACC-257, in the assay on UACC-62 and in the assay on UO-31 was > 100 µM (inactive) throughout.

Take `COc1cc(CC2c3cc(OC)c(OC)cc3CCN2C)c(C(=O)O)cc1OC` (centres undefined): the GI50 in the assay on 786-0, in the assay with ACHN, in the assay with HCT-116, in the assay on HOP-62, with HOP-92 and in the assay with K562 was > 100 µM (inactive) each time. Besides, the GI50 with NCI-H23, with RPMI-8226, in the assay with SF-295, in the assay on SK-OV-3, in the assay with SW-620 and in the assay on UACC-257 was > 100 µM (inactive) each time. The GI50 in the assay with UACC-62 and with UO-31 was > 100 µM (inactive) in each case.

With `CCC1CC(C)=CCN1S(=O)(=O)c1ccc(C)cc1` (centres undefined), the GI50 in the assay with 786-0 is 33.5 µM (inactive); in the assay on ACHN, 37 µM (inactive); with CAKI-1, 6.9 µM (inactive); in the assay on HCT-116 it was 9.82 µM (inactive); with HOP-62, 21.3 µM (inactive); in the assay with K562 it was 7.5 µM (inactive). Further, the GI50 with NCI-H460 is 21.1 µM (inactive); with RPMI-8226, 3.89 µM (inactive); with SF-295, 32.7 µM (inactive); in the assay on SK-OV-3, 24.5 µM (inactive); with SW-620 it was > 10 µM (inactive); in the assay on UACC-257, 25.9 µM (inactive). Also, the values for the GI50 with UACC-62 and with UO-31 were 15.5 µM (inactive) and 11.3 µM (inactive), respectively.

Take `Cc1cc(=O)oc2cc3c(cc12)Oc1ccccc1O3`: the GI50 is > 100 µM (inactive) with 786-0; > 100 µM (inactive) with ACHN; 44.9 µM (inactive) with HCT-116; > 100 µM (inactive) with HOP-62; > 100 µM (inactive) in the assay on HOP-92; > 100 µM (inactive) with IGROV-1. Moreover, the GI50 in the assay on K562 is > 10 µM (inactive); in the assay on NCI-H23, 89.3 µM (inactive); in the assay on NCI-H460 it was 51.9 µM (inactive); in the assay on RPMI-8226, > 100 µM (inactive); with SF-295 it was 43.5 µM (inactive); with SK-OV-3, 99.8 µM (inactive). Besides, the GI50 in the assay on SW-620, in the assay on UACC-257, with UACC-62 and with UO-31 was > 100 µM (inactive) throughout.

`CC12Oc3ccc4ccccc4c3CC1Cc1c(ccc3ccccc13)O2` (centres undefined): the GI50 in the assay on 786-0 is 40.2 µM (inactive); with ACHN, > 100 µM (inactive); in the assay with CAKI-1, 48 µM (inactive); with HCT-116, > 100 µM (inactive); with HOP-62, 53 µM (inactive); in the assay on HOP-92 it was 0.124 µM (active). For the same molecule, the GI50 in the assay on NCI-H23 was > 100 µM (inactive); in the assay on NCI-H460, 82.4 µM (inactive); with SF-295 it was 30 µM (inactive); in the assay with SW-620, > 100 µM (inactive); in the assay on UACC-257, 50.4 µM (inactive); in the assay on UO-31 it was > 100 µM (inactive).

The values above are taken from ChEMBL document CHEMBL1201862, “PubChem BioAssay data set” (2004).
